Structures are written as SMILES.

This test deals with T1, human PDHK2 (hPDHK2) (Homo sapiens, UniProt Q15119).
T1 construct: made in house; host or cells: Escherichia coli BL21(DE3), pET-17b vector
In words: Inhibitory action of PDHK2 activity (residual PDH activity, NADH absorbance at 340 nm). The format is biochemical. Conditions: PDH/hPDHK2 complex, PDHK reaction 45 min at room temperature. The method, then: In the case of human PDHK2 (hPDHK2, NCBI Reference Database Accession number NM_002611.4), modified hPDHK2 cDNA wherein FLAG-Tag sequence was added to the N terminus of hPDHK2 cDNA clone (pReceiver-M01/PDK2-GeneCopoeia) as the base was prepared by polymerase chain reaction (PCR) and ligated to the NdeI/EcoRI site of pET-17b vector (Merck KGaA, Catalog Number 69663-3). The recombinant construct was transformed into Escherichia coli DH5α. The recombinant clones were identified, and plasmid DNA was isolated and subjected to the DNA sequence analysis. One clone which had the expected nucleic acid sequence was selected for expression work.
For expression of hPDHK2 activity, Escherichia coli strain BL21(DE3) cells (Merck KGaA, Catalog Number 69450-4) were transformed with the pET17b vector containing modified hPDHK2 cDNA. The Escherichia coli were grown to an optical density 0.6 ([…]) at 30° C. Protein expression was induced by the addition of 500 μmol/L isopropyl-β-thiogalactopyranoside. The Escherichia coli were cultured at 20° C. for 17-18 hr and harvested by centrifugation. The harvested Escherichia coli was resuspended in a suspension buffer (20 mmol/L HEPES-NaOH, 500 mmol/L sodium chloride, 1% ethylene glycol, 0.1% Pluronic (registered trademark) F-68 (pH 8.0), cOmplete, EDTA-free (Roche) (pH 8.0)), and disrupted by a microfluidizer M-110H (MIZUHO INDUSTRIAL CO., LTD.). The precipitate was removed by centrifugation and the supernatant was added to DDDDK-tagged Protein PURIFICATION GEL (MEDICAL & BIOLOGICAL LABORATORIES CO., LTD., Code No. 3329). DDDDK-tagged Protein PURIFICATION GEL was washed with a washing buffer (20 mmol/L HEPES-NaOH, 500 mmol/L sodium chloride, 1% ethylene glycol, 0.1% Pluronic F-68 (pH 8.0)) and the bound protein was eluted with elution buffer 1 (20 mmol/L HEPES-NaOH, 100 μg/mL peptide (amino acid sequence DYKDDDDK) (SEQ ID NO: 1), 500 mmol/L sodium chloride, 1% ethylene glycol, 0.1% Pluronic F-68 (pH 8.0)). The eluted fractions containing FLAG-Tagged protein were pooled, concentrated by an ultrafiltration method, added to a gel filtration column (HiLoad 26/60 Superdex 200 (GE Healthcare Life Sciences, Code No. 17-1070-01)), and eluted with elution buffer 2 (20 mmol/L HEPES-NaOH, 150 mmol/L sodium chloride, 0.5 mmol/L ethylenediaminetetraacetic acid (EDTA), 1% ethylene glycol, 0.1% Pluronic F-68 (pH 8.0)). The eluted fractions were pooled and preserved at −80° C.
PDH (porcine heart PDH complex, Sigma P7032) and 0.5 μg/mL hPDHK2 were mixed in an assay buffer (50 mmol/L 3-morpholinopropanesulfonic acid (pH 7.0), 20 mmol/L dipotassium hydrogen phosphate, 60 mmol/L potassium chloride, 2 mmol/L magnesium chloride, 0.4 mmol/L EDTA, 0.2% poloxamer, 2 mmol/L dithiothreitol) so that the final concentration of PDH was 0.025 U/mL, and the mixture was incubated at 4° C. overnight to obtain a PDH/hPDHK2 complex solution.
PDH was mixed with the assay buffer so that the final concentration was 0.025 U/mL, and the mixture was incubated at 4° C. overnight to prepare a PDH solution.
The test compounds were diluted with DMSO. To measure an inhibitory action of the test compound on the PDHK activity in the PDH/hPDHK2 complex solution, PDH/hPDHK2 complex solution (20 μL), test compound (1.5 μL) and 1.06 μmol/L ATP (diluted with assay buffer) (8.5 μL) were added to a 384 well microplate (Greiner Bio-One 781801) and PDHK reaction was performed at room temperature for 45 min (test compound well). DMSO (1.5 μL) was added to control wells instead of test compound. In addition, DMSO (1.5 μL) was added to blank wells instead of the test compound, and PDH solution was added instead of the PDH/hPDHK2 complex solution. To measure an inhibitory action of the test compound on the PDHK activity inherent in the PDH solution, a test compound was added and the PDH solution instead of the PDH/hPDHK2 complex solution was added to a blank+test compound well. […]
Usually IC50 stands for the concentration needed to halve the response being measured. Read a low IC50 as greater potency in that assay. `C[C@H]1Cn2nc(OCCC3(C#N)CC3)cc2-c2cnc([C@@](C)(O)C(F)(F)F)n21` [Example 88] returned an IC50 of 17 nM.
Then `C[C@H]1Cn2c(nnc2C2(c3ccc(Cl)cc3)COC2)-c2cnc([C@@](C)(O)C(F)(F)F)n21` [Example 89], with 8.8 nM; and `C[C@H]1Cn2c(nnc2C(C)(F)F)-c2cnc([C@@](C)(O)C(F)(F)F)n21` [Example 90], with 15 nM; and `C[C@H]1Cn2c(nnc2C(C)(C)F)-c2cnc([C@@](C)(O)C(F)(F)F)n21` [Example 91], with 11 nM.
Turning to `C[C@H]1Cn2c(nnc2C(O)(C(F)(F)F)C(F)(F)F)-c2cnc([C@@](C)(O)C(F)(F)F)n21` [Example 92], half-maximal inhibition (IC50) was put at 16 nM.
`COC(c1nnc2n1C[C@H](C)n1c-2cnc1[C@@](C)(O)C(F)(F)F)(C(F)(F)F)C(F)(F)F` [Example 93] had an IC50 of 21 nM.
Next, `C[C@H]1Cc2cc(C#N)ccc2-c2cnc([C@@](C)(O)C(F)(F)F)n21` [Example 94]: 8.6 nM.
The molecule `C[C@H]1Cn2nc(Oc3ccc(C#N)nc3)cc2-c2cnc([C@@](C)(O)C(F)(F)F)n21` [Example 95] gave an IC50 of 18 nM. Compared with the last molecule, the IC50 is about 2.1-fold higher.
Then `C[C@H]1Cn2nc(OCCOC(F)F)cc2-c2cnc([C@@](C)(O)C(F)(F)F)n21` [Example 96], with 13 nM; and `C[C@H]1Cn2c(nnc2C2CC2c2ccccc2)-c2cnc([C@@](C)(O)C(F)(F)F)n21` (stereo partly shown) [Example 97], with 6.2 nM; and `C[C@H]1Cn2c(-c3ccc(F)c(OC(C)(C)C)c3)nnc2-c2cnc([C@@](C)(O)C(F)(F)F)n21` [Example 98], with 12 nM.
For `C[C@H]1Cn2c(nnc2C2(F)CC2)-c2cnc([C@@](C)(O)C(F)(F)F)n21` [Example 99], 8.5 nM corresponded to half-maximal inhibition (IC50).
Next, `C[C@H]1Cn2c(nnc2C(C)(C(F)(F)F)C(F)(F)F)-c2cnc([C@@](C)(O)C(F)(F)F)n21` [Example 100]: 9.5 nM.
Then `C[C@H]1Cn2nc(O[C@@H]3CCOC3)cc2-c2cnc([C@@](C)(O)C(F)(F)F)n21` [Example 101], with 14 nM; and `C[C@H]1Cn2nc(O[C@H]3CCOC3)cc2-c2cnc([C@@](C)(O)C(F)(F)F)n21` [Example 102], with 16 nM; and `C[C@H]1Cn2c(cc(=O)n2C(F)F)-c2cnc([C@@](C)(O)C(F)(F)F)n21` [Example 103], with 26 nM.
